The subject of one experiment is Alternaria mali. Description: Alternaria mali test (in vitro)/microtitre plates. The settings on record: 3 ppm, after 4 d. The experiment is classed as cell-based. The protocol: The microtest is carried out in microtitre plates using potato dextrose broth PDB) as liquid test medium. The active compounds are applied as technical-grade a.i., dissolved in acetone. A spore suspension of Alternaria mali is used for inoculation. After 4 days of incubation in the dark and with shaking (10 Hz), the transparency in each filled cavity of the microtitre plates is determined with the aid of a spectrophotometer.
(§1) 0% means an efficacy which corresponds to the growth in the controls, whereas an efficacy of 100% means that no fungal growth is observed.

The test system of the next experiment is Myzus persicae. Description: Myzus persicae test, dipped cabbage leaves. The experiment is classed as in vivo. The settings on record: 100 ppm, after 6 d. The procedure:
The determined kill rates are calculated using Colby's formula (see sheet 1).

The next experiment concerns Botrytis cinerea. The experiment can be described thus: Botrytis cinerea test (in vitro)/microtitre plates. The experiment is classed as cell-based. Particulars: 3 ppm, after 5 d. The procedure:
The microtest is carried out in microtitre plates using potato dextrose broth (PDB) as liquid test medium. The active compounds are applied as technical-grade a.i., dissolved in acetone. A spore suspension of Botrytis cinerea is used for inoculation. After 5 days of incubation in the dark and with shaking (10 Hz), the transparency in each filled cavity of the microtitre plates is determined with the aid of a spectrophotometer.
as §1

For the next experiment, the system named is Phaedon cochleariae. The experiment can be described thus: Phaedon cochleariae test, dipped cabbage leaves.
The test system of the next experiment is Plutella xylostella. The experiment can be described thus: Plutella xylostella test, dipped cabbage leaves. It is filed as in vivo. Particulars: after 6 d.

As to `Cc1nn(C)c(F)c1C(=O)Nc1ccccc1C(C)CC(C)C` (stereo not drawn) [(1-2), N-[2-(1,3-dimethylbutyl)phenyl]-5-fluoro-1,3-dimethyl-1H-pyrazole-4-carboxamide], the “Kill rate in % after d, found” value in the experiment with Alternaria mali was found to be 48%; with Myzus persicae, 0%; with Phaedon cochleariae (100 ppm, after 4 d), 0%; in the experiment with Phaedon cochleariae (100 ppm, after 6 d) it was 0%. In addition, in the experiment on Botrytis cinerea, the “Efficacy in % after d, found” value was determined as 16%.
For the compound `CN/C(=N\[N+](=O)[O-])NCc1cnc(Cl)s1` [(2.1.1) clothianidin, clothianidin], the “Kill rate in % after d, found” value is 20% in the experiment with Plutella xylostella (20 ppm); 8% in the experiment with Alternaria mali; 0% with Phaedon cochleariae (0.8 ppm, after 6 d).
Turning to `O=[N+]([O-])NC1=NCCN1Cc1ccc(Cl)nc1` [(2.1.2) imidacloprid, imidacloprid], the “Kill rate in % after d, found” value with Plutella xylostella (4 ppm) was found to be 20%; in the experiment on Phaedon cochleariae (0.8 ppm, after 6 d) it was 40%. The “Efficacy in % after d, found” value in the experiment with Botrytis cinerea worked out at 3%.
For the compound `CNC(=O)Oc1cc(C)c(SC)c(C)c1` [(3.1.1) methiocarb, methiocarb], in the experiment on Myzus persicae, the “Kill rate in % after d, found” value was 0%.
For `CS/C(C)=N\OC(=O)N(C)SN(C)C(=O)O/N=C(\C)SC` [(3.1.2) thiodicarb, thiodicarb], the “Kill rate in % after d, found” value in the experiment with Phaedon cochleariae (100 ppm, after 4 d) was 0%.
For the compound `N#Cc1nn(-c2c(Cl)cc(C(F)(F)F)cc2Cl)c(N)c1[S+]([O-])C(F)(F)F` (stereo not drawn) [(6.2.1) fipronil, fipronil], the “Kill rate in % after d, found” value in the experiment on Myzus persicae turned out to be 65%.
Consider spinosad [(5.1.1) spinosad], for which the “Kill rate in % after d, found” value in the experiment on Phaedon cochleariae (0.8 ppm, after 6 d) was 80%.

Values taken from patent publication US9155302B2, “Active substance combinations” (priority 2005, dated 2015).
